The structures appear in SMILES notation. Bridge positions count the residues as written; N and C are the ends. Square brackets hold non-standard residues; d marks the D form. Peptide text beside a SMILES is read from it. * marks the point of attachment. DOTA = O=C(O)CN1CCN(CC(=O)O)CCN(CC(=O)*)CCN(CC(=O)O)CC1; Nva = CCC[C@H](N)C(=O)O

In general, Kd refers to the equilibrium constant for the complex coming apart. A low value points to tighter binding.

For this assay, the target named is T1, human DLL3 (Homo sapiens, UniProt Q9NYJ7).
T1 construct: biotin (biotinylated)
T1 sequence (Q9NYJ7 27-618): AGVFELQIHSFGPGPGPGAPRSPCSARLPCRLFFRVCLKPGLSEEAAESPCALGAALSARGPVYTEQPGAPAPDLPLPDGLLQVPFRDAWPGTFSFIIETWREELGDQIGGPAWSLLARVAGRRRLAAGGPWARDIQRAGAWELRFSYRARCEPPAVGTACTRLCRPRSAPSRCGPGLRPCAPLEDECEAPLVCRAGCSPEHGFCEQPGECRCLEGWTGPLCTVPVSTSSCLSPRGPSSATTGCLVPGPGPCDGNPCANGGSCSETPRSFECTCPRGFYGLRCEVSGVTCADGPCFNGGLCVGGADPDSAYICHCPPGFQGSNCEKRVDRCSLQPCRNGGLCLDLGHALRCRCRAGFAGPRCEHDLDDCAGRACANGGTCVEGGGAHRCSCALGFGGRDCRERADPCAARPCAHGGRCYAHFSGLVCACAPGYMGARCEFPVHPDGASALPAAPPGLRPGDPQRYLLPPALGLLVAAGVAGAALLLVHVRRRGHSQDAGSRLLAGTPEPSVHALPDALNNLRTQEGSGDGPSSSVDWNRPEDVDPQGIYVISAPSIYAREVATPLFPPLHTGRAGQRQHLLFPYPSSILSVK
Nature of the assay: Affinity determination by Surface Plasmon Resonance (SPR), Biacore, 1:1 binding model. The conditions noted are these: biotinylated human DLL3 on streptavidin chip, 25° C.; NB = nonbinding. Here is the method:
Example 3. Binding Affinity of Targeting Moieties Polypeptides to DLL3 Affinity Determination by Surface Plasmon Resonance (SPR)
SPR studies were performed on the compounds disclosed herein using the following protocol. […] Biotinylated target ligand human DLL3 was immobilized on a streptavidin sensor chip. A reference surface was set up for nonspecific binding and refractive index changes. For analysis of the kinetics of interactions, varying concentrations of samples were injected at a flow rate of 100 μL/min using running buffer containing 20 mM phosphate buffer with 2.7 mM KCl, 137 mM NaCl, 0.05% Surfactant P20 and 2% DMSO. Sensorgram curves were fitted with 1:1 binding model, and affinity and kinetic parameters were obtained using Biacore Insight evaluation 4.0. software.
In the case of `CSCC[C@H](NC(C)=O)C(=O)N[C@@H](CO)C(=O)N[C@@H](CC(=O)O)C(=O)N[C@H]1CSSC[C@@H](C(=O)N2CCC[C@H]2C(=O)N[C@@H](Cc2ccccc2)C(=O)N[C@@H](CC(=O)O)C(N)=O)NC(=O)[C@H](CC(N)=O)NC(=O)[C@H](Cc2c[nH]c3ccccc23)NC(=O)[C@H](CCC(N)=O)NC(=O)[C@H](C)NC(=O)[C@H](Cc2c[nH]c3ccccc23)NC1=O` [compound 23, Ac-M-S-D-C(3)-W-(L-Ala)-Q-W-N-C(3)-P-F-D-CONH2] (Ac-MSDCWAQWNCPFD-NH2; disulfide 4-10), the Kd is > 0.1 µM.
Under `CSCC[C@H](NC(C)=O)C(=O)N[C@@H](CO)C(=O)N[C@@H](CC(=O)O)C(=O)N[C@H]1CSSC[C@@H](C(=O)N2CCC[C@H]2C(=O)N[C@@H](Cc2ccccc2)C(=O)N[C@@H](CC(=O)O)C(N)=O)NC(=O)[C@H](C)NC(=O)[C@H](Cc2c[nH]c3ccccc23)NC(=O)[C@H](CCC(N)=O)NC(=O)[C@H](CC(C)C)NC(=O)[C@H](Cc2c[nH]c3ccccc23)NC1=O` [compound 26, Ac-M-S-D-C(3)-W-L-Q-W-(L-Ala)-C(3)-P-F-D-CONH2] (Ac-MSDCWLQWACPFD-NH2; disulfide 4-10) stands > 0.1 µM; under `CSCC[C@H](NC(C)=O)C(=O)N[C@@H](CO)C(=O)N[C@@H](CC(=O)O)C(=O)N[C@H]1CSSC[C@@H](C(=O)N[C@@H](C)C(=O)N[C@@H](Cc2ccccc2)C(=O)N[C@@H](CC(=O)O)C(N)=O)NC(=O)[C@H](CC(N)=O)NC(=O)[C@H](Cc2c[nH]c3ccccc23)NC(=O)[C@H](CCC(N)=O)NC(=O)[C@H](CC(C)C)NC(=O)[C@H](Cc2c[nH]c3ccccc23)NC1=O` [compound 27, Ac-M-S-D-C(3)-W-L-Q-W-N-C(3)-(L-Ala)-F-D-CONH2] (Ac-MSDCWLQWNCAFD-NH2; disulfide 4-10), > 0.1 µM.
Under `CSCC[C@H](NC(C)=O)C(=O)N[C@@H](CO)C(=O)N[C@@H](CC(=O)O)C(=O)N[C@H]1CSSC[C@@H](C(=O)N2CCC[C@H]2C(=O)N[C@@H](C)C(=O)N[C@@H](CC(=O)O)C(N)=O)NC(=O)[C@H](CC(N)=O)NC(=O)[C@H](Cc2c[nH]c3ccccc23)NC(=O)[C@H](CCC(N)=O)NC(=O)[C@H](CC(C)C)NC(=O)[C@H](Cc2c[nH]c3ccccc23)NC1=O` [compound 28, Ac-M-S-D-C(3)-W-L-Q-W-N-C(3)-P-(L-Ala)-D-CONH2] (Ac-MSDCWLQWNCPAD-NH2; disulfide 4-10) stands > 0.1 µM; under `CSCC[C@H](NC(C)=O)C(=O)N[C@@H](CO)C(=O)N[C@@H](CC(=O)O)C(=O)N[C@H]1CSSC[C@@H](C(=O)N2CCC[C@H]2C(=O)N[C@@H](Cc2ccccc2)C(=O)N[C@@H](C)C(N)=O)NC(=O)[C@H](CC(N)=O)NC(=O)[C@H](Cc2c[nH]c3ccccc23)NC(=O)[C@H](CCC(N)=O)NC(=O)[C@H](CC(C)C)NC(=O)[C@H](Cc2c[nH]c3ccccc23)NC1=O` [compound 29, Ac-M-S-D-C(3)-W-L-Q-W-N-C(3)-P-F-(L-Ala)-CONH2] (Ac-MSDCWLQWNCPFA-NH2; disulfide 4-10), > 0.1 µM; under `CCC[C@H](NC(C)=O)C(=O)N[C@@H](CO)C(=O)N[C@@H](CC(=O)O)C(=O)N[C@H]1CSSC[C@@H](C(=O)N2CCC[C@H]2C(=O)N[C@@H](Cc2ccccc2)C(=O)N[C@@H](CC(=O)O)C(=O)N[C@H](CCCCNC(=O)CN2CCN(CC(=O)O)CCN(CC(=O)O)CCN(CC(=O)O)CC2)C(N)=O)NC(=O)[C@H](CC(N)=O)NC(=O)[C@H](Cc2c[nH]c3ccccc23)NC(=O)[C@H](CCC(N)=O)NC(=O)[C@H](CC(C)C)NC(=O)[C@H](Cc2c[nH]c3ccccc23)NC1=O` [compound 32, Ac-Nva-S-D-C(3)-W-L-Q-W-N-C(3)-P-F-D-D-Lys(DOTA)-CONH2] (Ac-[Nva]SDCWLQWNCPFD[dK](DOTA)-NH2; disulfide 4-10), 0.028 µM.

(Values after patent US20250186541A1, “DLL3 TARGETING PEPTIDES AND CONSTRUCTS THEREOF” (MARIANA ONCOLOGY INC., priority 2023, published 2025).)
